Reference: ChEMBL document CHEMBL2311510, “A new single-photon emission computed tomography (SPECT) imaging agent for serotonin transporters: [(125)I]Flip-IDAM, (2-((2-((dimethylamino)methyl)-4-iodophenyl)thio)phenyl)methanol” (Bioorg Med Chem Lett, 2013)

What was measured:
[1] = target: T1, Sodium-dependent serotonin transporter (Homo sapiens, UniProt P31645); assay: biochemical; assay type: cell-based, LLC-PK1
Target sequence in this assay (P31645 whole entry): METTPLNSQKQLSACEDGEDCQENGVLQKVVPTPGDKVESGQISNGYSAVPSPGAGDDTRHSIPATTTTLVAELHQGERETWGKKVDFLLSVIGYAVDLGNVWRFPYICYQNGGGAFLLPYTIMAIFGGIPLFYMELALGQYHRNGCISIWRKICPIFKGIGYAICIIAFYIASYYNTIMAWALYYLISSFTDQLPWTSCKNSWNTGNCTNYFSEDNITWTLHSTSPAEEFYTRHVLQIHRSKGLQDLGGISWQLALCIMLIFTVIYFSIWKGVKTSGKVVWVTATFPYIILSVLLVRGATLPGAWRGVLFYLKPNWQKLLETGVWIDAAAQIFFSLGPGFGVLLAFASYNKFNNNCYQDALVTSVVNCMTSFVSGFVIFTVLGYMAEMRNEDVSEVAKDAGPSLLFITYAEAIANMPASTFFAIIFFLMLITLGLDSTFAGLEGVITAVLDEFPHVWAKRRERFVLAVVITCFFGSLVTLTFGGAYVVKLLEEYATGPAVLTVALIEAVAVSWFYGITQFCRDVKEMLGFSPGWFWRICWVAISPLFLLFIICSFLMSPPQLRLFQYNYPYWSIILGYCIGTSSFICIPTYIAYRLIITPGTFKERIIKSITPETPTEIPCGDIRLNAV
Description: Inhibition of [125I]IDAM uptake at SERT (unknown origin) expressed in LLC-PK1 cell membranes

[2] = target: T1, Sodium-dependent serotonin transporter; assay: Binding affinity to SERT (unknown origin)
Target sequence in this assay (P31645 whole entry): as above

Nucleic Acid = assay: Ratio of drug level in hypothalamus to cerebellum in rat measured 60 mins compound dose; assay type: ADME, tissue-based; conditions: in vivo, 1 h
[3] = target: T1, Sodium-dependent serotonin transporter; assay: Potency index, ratio of Ki of Flip-ADAM to Ki of compound for SERT (unknown origin)
Target sequence in this assay (P31645 whole entry, looked up): as the sequence (P31645 whole entry) above

[4] = target: T1, Sodium-dependent serotonin transporter; assay: Potency index, ratio of Ki of IDAM to Ki of compound for SERT (unknown origin)
Target sequence in this assay (P31645 whole entry, looked up): as the sequence (P31645 whole entry) above

[5] = target: T1, Sodium-dependent serotonin transporter; assay: Inhibition of […] uptake at SERT (unknown origin) expressed in LLC-PK1 cell membranes; assay type: cell-based
Target sequence in this assay (P31645 whole entry): as above

SMILES | Ki [1] | Ki [2] | further results
CN(C)Cc1cc(I)ccc1Sc1ccccc1N | 1 nM | – | –
CN(C)Cc1ccccc1Sc1ccc([123I])cc1N | – | 0.013 nM | –
CN(C)Cc1ccccc1Sc1ccc([123I])cc1CO | – | 0.097 nM | Ratio (Nucleic Acid): 2.76
CN(C)Cc1cc(I)ccc1Sc1ccccc1CO | 0.03 nM | – | Ratio Ki [3]: 33; Ratio Ki [4]: 3
O=C(OCCF)[C@H]1[C@@H](c2ccc(/C=C\I)cc2)C[C@H]2CC[C@H]1N2 | – | 0.08 nM | –
CN(C)Cc1ccccc1Sc1ccc(I)cc1CO | – | – | Ki [5]: 0.1 nM
